Paper PMC4852132 (Biochemistry, 2016)
Values joined by “and” are separate entries in the source; they are usually repeats but may differ in a detail not shown here. Equal values may be shown once. Read-outs that look alike come from different tables or passages of the source.

How the values were obtained:
[1] = molecular target: T1, E1p-h (Homo sapiens, UniProt P08559+P11177); assay: Quenching of intrinsic fluorescence of E1p-h; type: binding
T1 sequence (P08559 30-390): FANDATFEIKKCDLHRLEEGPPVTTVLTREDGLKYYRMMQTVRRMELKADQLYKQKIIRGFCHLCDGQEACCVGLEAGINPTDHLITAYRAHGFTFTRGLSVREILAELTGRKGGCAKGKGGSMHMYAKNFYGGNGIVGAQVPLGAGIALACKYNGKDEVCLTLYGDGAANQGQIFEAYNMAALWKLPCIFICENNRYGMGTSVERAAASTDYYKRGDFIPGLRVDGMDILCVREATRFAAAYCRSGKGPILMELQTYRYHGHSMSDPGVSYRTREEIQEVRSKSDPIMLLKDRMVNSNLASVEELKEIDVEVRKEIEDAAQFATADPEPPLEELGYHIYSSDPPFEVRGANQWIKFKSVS
T1 sequence (P11177 31-359): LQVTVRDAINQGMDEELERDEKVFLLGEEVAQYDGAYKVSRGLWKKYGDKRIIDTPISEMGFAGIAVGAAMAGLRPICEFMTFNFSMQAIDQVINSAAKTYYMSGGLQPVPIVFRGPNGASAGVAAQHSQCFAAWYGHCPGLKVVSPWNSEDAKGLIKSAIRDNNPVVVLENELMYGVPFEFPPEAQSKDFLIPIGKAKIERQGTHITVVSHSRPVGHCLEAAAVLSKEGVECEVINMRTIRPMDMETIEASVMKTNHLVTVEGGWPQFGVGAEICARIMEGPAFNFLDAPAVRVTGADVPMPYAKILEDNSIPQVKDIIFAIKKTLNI

[2] = molecular target: T2, DXPS (Escherichia coli, UniProt P77488); conditions: apo-DXPS with 0.10 mM cofactor
[3] = molecular target: T1, E1p-h; assay: MS reductive acetylation of the E2p-h lipoyl domain; type: biochemical; conditions: E1p-h with cofactor and pyruvate
[4] = molecular target: T1, E1p-h; assay: E1p-h specific activity by rate of reduction of DCPIP; type: biochemical; conditions: for E1p-h specific activity, percent of that with ThDP: cofactor 0.2 or 0.5 mM
[5] = molecular target: PDHc-h (Homo sapiens, UniProt P08559+P11177); assay: Overall PDHc-h activity by formation of NADH at 340 nm; type: biochemical
[6] = molecular target: T3, E1p-ec (Escherichia coli, UniProt P0AFG8)
[7] = molecular target: OGDHc-ec (Escherichia coli, UniProt P0AFG3); assay: Overall OGDHc-ec activity by formation of NADH; type: biochemical
[8] = molecular target: T3, E1p-ec; conditions: cofactor 0.2 mM
[9] = molecular target: T2, DXPS
[10] = molecular target: PDHc-ec (Escherichia coli, UniProt P0AFG8); conditions: cofactor 0.2 mM in assay, no ThDP present for MeOThDP

Structure (SMILES)	percent of E1p-h fluorescence quenched [1]	Kd ([1]; read-out: Kd from quenching of E1p-h fluorescence)	DXPS activity, percent of that with ThDP [2]	DXPS activity ([2]; 37 °C, independent preparations)	rate of reductive acetylation of LD1-h [3]	E1p-h specific activity ([4]; cofactor 0.2 and 0.5 mM, E1p-h alone, model reaction)	E1p-h specific activity, percent of that with ThDP [4]	pH of maximal kcat in the overall PDHc-h activity ([5]; E1p-h complexed with MeOThDP)	percent of the E1p-ec fluorescence quenched [6]	overall OGDHc activity, percent of that with ThDP ([7]; listed as MeOThP)	E1p-ec specific activity, percent of that with ThDP [8]	percent of quenching of the fluorescence of apo-DXPS [9]	Kd ([9]; read-out: Kd from quenching of the intrinsic fluorescence of DXPS, apo-DXPS, pH 8.0, 25 °C)	overall PDHc-ec activity, percent of that with ThDP [10]	Kd [1]	overall PDHc-h activity, percent of that with ThDP ([5]; cofactor 0.2 or 0.5 mM)	overall OGDHc activity, percent of that with ThDP [7]	E1p-ec specific activity ([8]; E1p-ec alone, model reaction)
COc1ncc(C[n+]2csc(CCOP(=O)(O)OP(=O)(O)O)c2C)c(N)n1 [MeOThDP, 2′-methoxythiamin diphosphate]	4%	16.2 ± 4.5 µM	9–14% and 8.8% and 14% and ~ 8.8% and ~ 14%	0.26 ± 0.04 µmol min^−1 (mg of DXPS)^−1 and 0.30 ± 0.01 µmol min^−1 (mg of DXPS)^−1	6.38 s⁻¹	0.017 ± 0.01 µmol min^−1 (mg of E1p-h)^−1	~49%	7.25	5.8%	42% and 69%	~19%	27%	6.24 ± 0.23 µM	8.6% and 11% and 5.9%				
Cc1ncc(C[n+]2csc(CCOP(=O)([O-])OP(=O)(O)O)c2C)c(N)n1 [ThDP, thiamin diphosphate]	19%		100%		10.25 s⁻¹		100%		9.9%		100%	35%		100%	7.2 ± 0.5 µM	100%	100%	0.36 ± 0.01 µmol min^−1 (mg of E1p-ec)^−1
